Data on 10 compounds can be found in patent US20190117630A1, “METHODS AND DRUG COMPOSITIONS FOR TREATING LYME DISEASE” (priority 2016, published 2019).

SMILES strings stand for the structures. Counter-ions that a name gives are not always drawn.

Experiment [1] relates to Borrelia. Put plainly: Determination of Minimum Inhibitory Concentration (MIC). As to conditions: Borreliella burgdorferi; 72 hours, lowest concentration with no motile spirochete by microscopy. The format is cell-based, B. burgdorferi. The procedure:
(§1) The Minimum Inhibitory Concentration (MIC) of the small molecules identified through screening was determined by culturing 10^6/ml Borrelia in BSK-II medium with different concentrations (0.3 μM to 160 μM) of drugs. For MIC, 1 ml cultures with respective drugs were grown in 48 well plates in triplicates, wrapped with paraffin film and placed for 72 hours at 33° C. in a humidified CO2 incubator (Forma Scientific, USA) having 5% CO2 and 95% air. Cell proliferation was assessed using bacterial counting chamber (Petroff-Hausser Counter, Horsham, Pa., USA) by phase contrast microscopy. In parallel cell proliferation was also assessed BacTiter-Glo™ Assay. The counting was performed in all the 25 squares of the central grid. The BacTiter-Glo™ Assay was performed by mixing 100 μl of culture in each well with 100 μl of BacTiter-Glo™ reagent (Promega, Madison, Wis., USA). Then, the assay was performed according to the manufacturer's instructions. Luminescence was measured on a Flex station3 micro-plate reader at luminescence 500 ms.
(§2) To confirm the efficacy of the screening MIC and MBC values were evaluated. The MIC is determined as the lowest concentration at which no motile spirochete is observed by microscopy. […] The MBC was determined by sub-culturing 20 μl of the Borrelia cultures grown at different drug concentrations in fresh BSK-II medium for 21 days. The MBC value was determined when no spirochete was observed microscopically in the culture.

The test system of experiment [2] is Borrelia. Put plainly: Determination of Minimum Bactericidal Concentration (MBC). The format is cell-based, B. burgdorferi. As to conditions: Borreliella burgdorferi, 504 h; sub-culture in fresh BSK-II medium for 21 days, no spirochete observed. The procedure: For determining minimum bactericidal concentration (MBC), 20 μl of the 10^6/ml Borrelia cultures grown in BSK-II medium for 72 hours at different drug concentrations were added to the fresh BSK-II medium and sub-cultured for 3 weeks. After 3 weeks of incubation period, the samples were observed microscopically for motile spirochetes in the culture. The MIC and MBC determinations were done thrice independently.
as §2

A further experiment has as its system Borrelia cultures. As to the kind of experiment: Secondary screening, Borrelia cell viability by BacTiter-Glo Assay. The format is cell-based, B. burgdorferi. As to conditions: for efficacy (Borrelia cell viability assay): at 0.31 μM, FIG. 1B. The procedure: FIG. 1 depicts a Borrelia cell viability assay using agents (A) tetraethylthiuram disulfide, doxorubicin hydrochloride, and epirubicin hydrochloride and (B) azlocillin sodium and cephalothin sodium. The results represent mean±SD.
as §1
The viability of Borellia cultures was evaluated with BacTiter-Glo™ Assay.

The test system of experiment [3] is doxycycline-tolerant Borrelia persisters. As to the kind of experiment: Eradication of doxycycline-tolerant Bb persisters. The format is cell-based, B. burgdorferi. To be noted: 5 days, after doxycycline 2.5 μM to 40 μM for 3 days, FIG. 3B. The procedure: So to identify the drugs that kill drug-tolerant Borrelia persisters, 10^6/ml Borrelia in BSK-II medium was treated with concentrations of doxycycline ranging from 2.5 μM to 40 μM for 3 days. The doxycycline-tolerant persisters were treated with 20 μg and 40 μg Azlocillin for 5 days. After 5 days of treatment, the cultures were pelleted, washed and plated on semisolid BSK-II agarose plates for minimum 21 days. The plates were incubated for regrowth and colonies are counted. The study was performed thrice independently.

The subject of a further experiment is Bb. As to conditions: C3H mouse model, urinary bladders, heart, ear skin.
The test system of the next experiment is Borrelia isolate CA8 Bss. As to the kind of experiment: Time-kill studies. The format is cell-based, B. burgdorferi sensu stricto. As to conditions: 1.25 μM, CA8 strain. The procedure: Time-kill studies were performed with Borrelia isolate CA8 Bss with azlocillin sodium and cefotaxime acid. To determine the rate of antimicrobial activity, 10^6/ml Borrelia cultures were grown in BSK-II medium with drugs at different concentrations. BSK-II medium with no drugs is used as a control. The antibacterial activity was determined by counting bacteria at 24 hours, 48 hours and 72 hours. The experiment was done once with triplicates.

One may read the MBC as the lowest tested concentration that kills the bacteria rather than only halting them. With `CC1(C)S[C@@H]2[C@H](NC(=O)[C@H](NC(=O)N3CCNC3=O)c3ccccc3)C(=O)N2[C@H]1C(=O)O` [Azlocillin sodium], in the experiment with Borrelia [1], the MIC was no more than 3 µM. In the experiment on Borrelia [2], this compound gave an MBC of no more than 10 µM. Besides, the “efficacy (Borrelia cell viability assay)” value in the experiment on Borrelia cultures is on record as roughly 99%. Besides, the “elimination of doxycycline-tolerant Borrelia persisters” value in experiment [3] (20 μg) and in experiment [3] (40 μg) was “completely eliminated” throughout. Besides, the “elimination of Borrelia infection in vivo (failure to culture live spirochetes from tissues after treatment)” value in the experiment with Bb is “very effective in eliminating Borrelia infection”.

In the case of `Cc1nnc(SCC2=C(C(=O)O)N3C(=O)[C@@H](NC(=O)Cn4cnnn4)[C@H]3SC2)s1` [Cefazolin sodium], in the experiment with Borrelia [1], the MIC is no more than 3 µM.

On to `CO/N=C(\C(=O)N[C@@H]1C(=O)N2C(C(=O)O)=C(COC(C)=O)CS[C@H]12)c1csc(N)n1` [Cefotaxime acid], for which, in the experiment with Borrelia [1], the MIC was no more than 3 µM. For the same compound, in the experiment on Borrelia [2], the MBC was no more than 10 µM. Besides, the “elimination of doxycycline-tolerant Borrelia persisters” value in experiment [3] (40 μg) is “killed the Borrelia persisters completely”. The “decrease of initial Borrelia inoculum, time-kill” value in the experiment on Borrelia isolate CA8 Bss came to 1 log10-unit. Further, the “elimination of Borrelia infection in vivo (failure to culture live spirochetes from tissues after treatment)” value in the experiment on Bb is “very effective in eliminating Borrelia infection”.

Turning to `CC(=O)OCC1=C(C(=O)O)N2C(=O)[C@@H](NC(=O)Cc3cccs3)[C@H]2SC1` [Cephalothin sodium], the MIC against Borrelia [1] is no more than 3 µM. For the same compound, in the experiment on Borrelia cultures, the “efficacy (Borrelia cell viability assay)” value is listed as roughly 99%.

As to `COc1cccc2c1C(=O)c1c(O)c3c(c(O)c1C2=O)C[C@@](O)(C(=O)CO)C[C@@H]3O[C@H]1C[C@H](N)[C@H](O)[C@H](C)O1` [Doxorubicin hydrochloride], the MIC with Borrelia [1] is less than 1 µM. This compound came in with an MBC against Borrelia [2] of less than 1.5 µM. In addition, the “concentration uniformly effective against Bb” value with Borrelia cultures (BacTiter-Glo Assay, FIG. 1A) was found to be 0.625 µM.

As for `COc1cccc2c1C(=O)c1c(O)c3c(c(O)c1C2=O)C[C@@](O)(C(=O)CO)C[C@@H]3O[C@H]1C[C@H](N)[C@@H](O)[C@H](C)O1` [Epirubicin hydrochloride], the MIC in the experiment with Borrelia [1] is less than 1 µM. The compound further gave an MBC in the experiment with Borrelia [2] of less than 1.5 µM. The “concentration uniformly effective against Bb” value in the experiment with Borrelia cultures (BacTiter-Glo Assay, FIG. 1A) came to 0.625 µM.

In the experiment on Borrelia [2], `CC(=O)[C@]1(O)Cc2c(O)c3c(c(O)c2[C@@H](O[C@H]2C[C@H](N)[C@H](O)[C@H](C)O2)C1)C(=O)c1ccccc1C3=O` [Idarubicin HCl] yielded an MBC of no more than 10 µM.

`CC(=O)NC[C@H]1CN(c2ccc(N3CCOCC3)c(F)c2)C(=O)O1` [Linezolide]: the MIC against Borrelia [1] is no more than 3 µM.

In turn, `CCN(CC)C(=S)SSC(=S)N(CC)CC` [Tetraethylthiuram disulfide] yielded an MIC in the experiment with Borrelia [1] of no more than 3 µM. Also, in the experiment with Borrelia [2], the MBC was no more than 10 µM. The “concentration showing complete Borrelia cell inhibition” value in the experiment on Borrelia cultures (BacTiter-Glo Assay, FIG. 1A) turned out to be 1.25 µM.

In the case of `CO[C@@H]1[C@@H](O[C@@H]2O[C@H](C)[C@@H](O[C@H]3C[C@@](C)(O)[C@@H](OC(=O)CC(C)C)[C@H](C)O3)[C@H](N(C)C)[C@H]2O)[C@@H](CC=O)C[C@@H](C)[C@@H](O)/C=C/C=C/C[C@@H](C)OC(=O)C[C@H]1O` [leucomycin], in the experiment on Borrelia [2], the MBC was no more than 10 µM.
